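Five concentrations, 48 hours, 96-well plates. The concentration for 50% growth inhibition is given as GI50.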 The source made the active and inactive calls. Rule as the data show it: active = GI50 up to about 1.1 µM and inactive = higher.
Columns and labels:
Assay in all cases: NCI-60 cell line screen, 48 h
M14 = system: M14
COLO 205 = system: COLO 205
U-251 = system: U-251
SNB-19 = system: SNB-19
SF-268 = system: SF-268
UO-31 = system: UO-31
HOP-62 = system: HOP-62
UACC-257 = system: UACC-257
SF-295 = system: SF-295
HCC 2998 = system: HCC 2998
K562 = system: K562
CCRF-CEM = system: CCRF-CEM
UACC-62 = system: UACC-62
SF-539 = system: SF-539
HL-60 = system: HL-60
HOP-92 = system: HOP-92

Measured: GI50

COc1ccc(/C=C2\Cc3ccccc3C2=O)cc1OC
inactive: M14 > 100 µM | COLO 205 > 100 µM | U-251 > 100 µM | SNB-19 > 100 µM | SF-268 45.3 µM | UO-31 39.7 µM | HOP-62 > 100 µM | UACC-257 > 100 µM | SF-295 60.8 µM | HCC 2998 > 100 µM | K562 > 100 µM | CCRF-CEM > 100 µM | UACC-62 > 100 µM

COc1ccc(-c2cc(O)c3cc4c(cc3n2)OCO4)cc1
inactive: M14 > 100 µM | COLO 205 > 100 µM | U-251 > 100 µM | SNB-19 55.5 µM | SF-268 > 100 µM | UO-31 > 100 µM | HOP-62 61 µM | UACC-257 > 100 µM | SF-295 63.4 µM | HCC 2998 > 100 µM | K562 > 100 µM | SF-539 > 100 µM | HL-60 > 100 µM | CCRF-CEM > 100 µM | UACC-62 > 100 µM

COC(=O)C(Cc1nc2ccccc2nc1O)/C(=N\NC(C)(C)C)C(=O)Nc1c(C)cc(Br)cc1C (centres undefined)
inactive: M14 21.8 µM | COLO 205 17.4 µM | HOP-92 18.7 µM | U-251 19.2 µM | SNB-19 31.1 µM | SF-268 22.3 µM | UO-31 50.4 µM | HOP-62 35 µM | UACC-257 33.9 µM | SF-295 35.3 µM | HCC 2998 73.1 µM | K562 29.4 µM | SF-539 19.9 µM | CCRF-CEM 17.8 µM | UACC-62 19 µM

CC(C)=CCC/C(C)=C/CC/C(C)=C/CCC1(C)CCC([C@H](C)C(=O)O)OO1.CC1=C(CC/C(C)=C/CCC2(C)CCC([C@H](C)C(=O)O)OO2)C(C)(C)CCC1 (some centres undefined)
inactive: M14 > 100 µM | COLO 205 > 100 µM | HOP-92 > 100 µM | U-251 > 100 µM | SNB-19 > 100 µM | SF-268 > 100 µM | UO-31 > 100 µM | HOP-62 > 100 µM | UACC-257 > 100 µM | SF-295 > 100 µM | HCC 2998 85.3 µM | SF-539 > 100 µM | HL-60 > 100 µM

CC(=O)Oc1ccc(CO)cc1OC(C)=O
inactive: M14 > 100 µM | COLO 205 > 100 µM | HOP-92 > 100 µM | U-251 > 100 µM | SNB-19 > 100 µM | SF-268 > 100 µM | UO-31 > 100 µM | HOP-62 > 100 µM | UACC-257 > 100 µM | SF-295 > 100 µM | K562 57.8 µM | HL-60 24.5 µM | CCRF-CEM 27.6 µM | UACC-62 > 100 µM

CCC1=CCN(c2cc(C)ccn2)OC1c1ccccc1 (centres undefined)
inactive: M14 31.3 µM | COLO 205 40.6 µM | U-251 22.8 µM | SNB-19 81.3 µM | SF-268 86.5 µM | UO-31 50 µM | HOP-62 > 100 µM | UACC-257 33.3 µM | SF-295 39.3 µM | HCC 2998 33.3 µM | K562 47.4 µM | SF-539 > 100 µM | HL-60 18.3 µM | CCRF-CEM 35.7 µM | UACC-62 39.2 µM

CSc1nc(NC2OC(COC(C)=O)C(OC(C)=O)C(OC(C)=O)C2OC(C)=O)c2c(n1)OCC2=O (centres undefined)
inactive: M14 > 100 µM | COLO 205 > 100 µM | HOP-92 > 100 µM | U-251 > 100 µM | SNB-19 > 100 µM | SF-268 > 100 µM | UO-31 > 100 µM | HOP-62 > 100 µM | UACC-257 > 100 µM | SF-295 > 100 µM | K562 > 100 µM | SF-539 > 100 µM | HL-60 > 100 µM | CCRF-CEM > 100 µM | UACC-62 > 100 µM

CC1OC(n2cc(F)c(=O)[nH]c2=O)C=CC1=O (centres undefined)
inactive: M14 17.5 µM | COLO 205 32.2 µM | HOP-92 17.7 µM | U-251 14.8 µM | SNB-19 17.4 µM | SF-268 19.6 µM | UO-31 16.1 µM | HOP-62 38.8 µM | UACC-257 17.9 µM | SF-295 17.3 µM | HCC 2998 17.8 µM | K562 31 µM | SF-539 16.4 µM | HL-60 17.9 µM | CCRF-CEM 13.8 µM | UACC-62 17.7 µM

C=CCCOC(=O)CO[N+](=O)[O-]
inactive: M14 > 100 µM | COLO 205 > 100 µM | U-251 > 100 µM | SNB-19 > 100 µM | SF-268 > 100 µM | UO-31 > 100 µM | HOP-62 > 100 µM | UACC-257 > 100 µM | SF-295 > 100 µM | HCC 2998 > 100 µM | K562 > 100 µM | SF-539 > 100 µM | HL-60 23.2 µM | CCRF-CEM > 100 µM

CSC1NC=Nc2c1sc(=S)n2-c1ccccc1 (centres undefined)
inactive: M14 > 100 µM | COLO 205 > 100 µM | HOP-92 83.8 µM | U-251 > 100 µM | SNB-19 > 100 µM | SF-268 > 100 µM | UO-31 > 100 µM | HOP-62 24.2 µM | UACC-257 > 100 µM | SF-295 > 100 µM | HCC 2998 > 100 µM | SF-539 > 100 µM | UACC-62 > 100 µM

CCOC(=O)[C@H](Cc1ccccc1)NC(=O)c1nc[nH]c1[N+](=O)[O-]
inactive: M14 > 100 µM | COLO 205 > 100 µM | U-251 > 100 µM | SNB-19 > 100 µM | SF-268 > 100 µM | UO-31 > 100 µM | HOP-62 > 100 µM | UACC-257 > 100 µM | SF-295 > 100 µM | HCC 2998 > 100 µM | K562 > 100 µM | SF-539 > 100 µM | HL-60 > 100 µM | CCRF-CEM > 100 µM | UACC-62 > 100 µM

CCOC(=O)CP(=S)(S)c1ccccc1 (centres undefined)
inactive: COLO 205 > 100 µM | HOP-92 > 100 µM | U-251 > 100 µM | SNB-19 > 100 µM | SF-268 > 100 µM | UO-31 > 100 µM | HOP-62 > 100 µM | UACC-257 > 100 µM | SF-295 > 10 µM | K562 > 100 µM | SF-539 > 100 µM | HL-60 > 100 µM | CCRF-CEM > 100 µM | UACC-62 > 100 µM

C=CC1[C@H]2COC(C)(C)O[C@@H]2CC(=O)C1(C)C (some centres undefined)
inactive: M14 > 100 µM | COLO 205 > 100 µM | HOP-92 > 100 µM | U-251 > 100 µM | SNB-19 > 100 µM | SF-268 > 100 µM | UO-31 > 100 µM | HOP-62 > 100 µM | UACC-257 > 100 µM | SF-295 > 100 µM | HCC 2998 > 100 µM | SF-539 > 100 µM | HL-60 > 100 µM

CC1(C)CCC[C@@]2(C)C1CC[C@H]1CC(O)C3(C)CCC12C3 (some centres undefined)
inactive: M14 17.1 µM | HOP-92 15.6 µM | U-251 18.2 µM | SNB-19 18 µM | SF-268 19.2 µM | UO-31 17.5 µM | HOP-62 19.1 µM | UACC-257 18.2 µM | HCC 2998 19.8 µM | K562 32.1 µM | SF-539 18.9 µM | HL-60 23.3 µM | CCRF-CEM 26.4 µM | UACC-62 15.8 µM

From ChEMBL document CHEMBL1201862, “PubChem BioAssay data set” (2004)
